Data set [1] relates to HTLV-I-infected T-lymph cell lines (MT-2, MT-4, HUT-102, ED-40515 (−)). Put plainly: Measurement of proliferation potency of HTLV-I-infected T-lymph cell lines (WST-8 cell survival rate). The conditions noted are these: for effect on the growth of HTLV-I-infected T-lymph cell lines: 10, 5, 2.5 μM, FIG. 3; for effect on the growth of HTLV-I-infected T-lymph cell lines / growth of HTLV-I-infected T-lymph cell lines (cell survival rate): WST-8; for growth of HTLV-I-infected T-lymph cell lines (cell survival rate): 10, 5, 2.5, 1.25, 0.625 μM, FIG. 1. Type of data set: cell-based. The procedure: (§1) After adding “WST-8” (manufactured by Wako Pure Chemical Industries, Ltd.) in an amount of 5 μL/well as a coloring substrate, cells were cultured for four hours at 37° C.
(§2) Cell survival rate (%)=[1−(A−B)/A]×100 [Formula 1]
(§3) A: Absorbance without agent treatment
(§4) A: Absorbance with agent treatment
In general terms: Tetrazolium dyes change colour on reduction, which living cells bring about.

Data set [2] relates to EBV-infected B cell lines (Raji, Daudi, B95-8/BJAB, B95-8/Ramos, LCL-Ka, LCL-Ku). Description: Measurement of proliferation potency of EBV-infected B cell lines (WST-8 cell survival rate). Type of data set: cell-based. Conditions: 24 hours; for growth of EBV-infected BL cell lines (cell survival rate): 10, 5, 2.5, 1.25, 0.625 μM, WST-8, FIG. 2. The protocol: as §1, §2, §3, §4

The subject of data set [3] is PBMC (leukemia cells) of adult T-cell-leukemia (ATL) patients. Put plainly: Measurement of proliferation potency of peripheral blood mononuclear cells of ATL patients (WST-8). The conditions noted are these: 24 hours; for growth of leukemia cells in ATL patients (PBMC survival rate): five ATL patients, fucoxanthin 0.625-10 μM, fucoxanthinol 0.625-2.5 μM, FIG. 4. Type of data set: cell-based, human.

The subject of a further data set is PBMC of a healthy person. Description: Measurement of proliferation potency of peripheral blood mononuclear cells of a healthy person (WST-8). The conditions noted are these: for action on normal cells: normal cells versus HTLV-1-infected cells and ATL cells. The protocol: First, the peripheral blood mononuclear cells (PBMC) were separated by the Ficoll centrifugal specific gravity method. The cells were diluted with an RPMI 1640 culture medium containing 10% fetal bovine serum to 2×10^6 cells/mL and spread over a 96-well plate in an amount of 1×10^5 cells/well.
Next, 50 μL/well of fucoxanthin and fucoxanthinol were added to make final concentrations of 10, 5, 2.5, 1.25, and 0.625 μM (fucoxanthin) or 2.5, 1.25 and 0.625 μM (fucoxanthinol), followed by incubation at 37° C. for 24 hours. After adding WST-8 in an amount of 5 μL/well, the cells were cultured for four hours at 37° C. After culturing, absorbance at a wavelength of 450 nm was measured by a microplate reader to determine the survival rate of the cells using the above formula.

The test system of data set [4] is HTLV-I-infected cell lines (MT-2, MT-4, HUT-102, ED-40515 (−)). Put plainly: Measurement of cell-cycle of HTLV-I-infected cell lines (propidium iodide, flow cytometry). Type of data set: cell-based. Conditions: 5 μM, 24 hours; FIG. 5. The protocol: 1×10^6 cells of HTLV-I-infected cell lines (MT-2, MT-4, HUT-102, ED-40515 (−)) were scattered over a cell culture plate, and 5 μM of fucoxanthin was added, followed by incubation at 37° C. for 24 hours. After 24 hours, the cells were collected and dyed with propidium iodide to measure the DNA content using a flow sight meter. The cell cycle of each cell was judged by calculating the distribution of the cell group of each cell cycle from the result of the DNA content.
In general terms: Flow cytometry measures light scatter and fluorescence of single cells or particles in a stream.

Data set [5] has the same test system. Description: Measurement of apoptosis of HTLV-I-infected cell lines (annexin V, flow cytometry). Type of data set: cell-based. The procedure:
After 24 hours, the cells were collected and dyed with annexin V to measure the rate (%) of apoptosis-positive cells using a flow sight meter.

[6] abbreviates: HTLV-1-infected cells and ATL cells.

For the compound `CC1=C(/C=C/C(C)=C/C=C/C(C)=C/C=C/C=C(C)/C=C/C=C(C)/C=C/C2=C(C)C(=O)[C@@H](O)CC2(C)C)C(C)(C)C[C@H](O)C1=O` [astaxanthin, reference compound], the “effect on the growth of HTLV-I-infected T-lymph cell lines” value in data set [1] (24 hours) is given as “only a slight effect”.
In the case of `CC(=O)O[C@H]1CC(C)(C)C(=C=C/C(C)=C/C=C/C(C)=C/C=C/C=C(C)/C=C/C=C(\C)C(=O)C[C@@]23O[C@]2(C)C[C@@H](O)CC3(C)C)[C@](C)(O)C1` [fucoxanthin], in data set [1] (24 hours), the “growth of HTLV-I-infected T-lymph cell lines (cell survival rate)” value is “concentration-dependently suppressed the growth”. For the same compound, the “growth of EBV-infected BL cell lines (cell survival rate)” value in data set [2] is on record as “concentration-dependently suppressed the growth”. Also, in data set [3], the “growth of leukemia cells in ATL patients (PBMC survival rate)” value is “concentration-dependently suppressed the growth”. In addition, the “action on normal cells” value in the data set with PBMC of a healthy person was “substantially do not act on normal cells”. In addition, the “effect on the cell cycle of HTLV-I-infected cell lines” value in data set [4] is “suspends the cell cycle of all HTLV-I-infected cell lines at the G1 phase”. In data set [5] (setting [6]), the “concentration causing apoptosis compared with β-carotene or astaxanthin” value is “significantly lower than the corresponding concentration of β-carotene or astaxanthin”. Moreover, the “apoptosis of HTLV-I-infected cell lines (annexin V positive cells)” value in data set [5] (MT-2, MT-4, HUT-102, ED-40515 (−), 24 hours, FIG. 6) was “induces apoptosis in all HTLV-I infected cell lines”. Also, the “concentration dependence of apoptosis of MT-2” value in data set [5] (MT-2, 10, 5, 2.5 μM, 24 hours, FIG. 7) is on record as “concentration dependent”.
Regarding `C\C(C=C=C1C(C)(C)C[C@H](O)C[C@@]1(C)O)=C/C=C/C(C)=C/C=C/C=C(C)/C=C/C=C(\C)C(=O)C[C@@]12O[C@]1(C)C[C@@H](O)CC2(C)C` [fucoxanthinol], the “growth of HTLV-I-infected T-lymph cell lines (cell survival rate)” value in data set [1] (24 hours) is recorded as “concentration-dependently suppressed the growth”. The “survival rate of the cells” value in data set [1] (HTLV-1-infected cells and ATL cells, at a concentration of one micromole or less) is reported as “almost zero”. For the same compound, the “capability to inhibit growth compared with fucoxanthin” value in data set [1] (HTLV-I-infected T-lymph cell lines, 24 hours) was “significantly higher than that of fucoxanthin”. Besides, in data set [2], the “growth of EBV-infected BL cell lines (cell survival rate)” value is “concentration-dependently suppressed the growth”. Further, the “capability to inhibit growth compared with fucoxanthin” value in data set [2] (EBV-infected BL cell lines) is “significantly higher than that of fucoxanthin”. Moreover, the “effect on growth potency compared with fucoxanthin” value in data set [3] (PBMC of ATL patients) was “higher than that of fucoxanthin”. Further, the “growth of leukemia cells in ATL patients (PBMC survival rate)” value in data set [3] was “concentration-dependently suppressed the growth”. For the same compound, the “toxicity against the PBMC of the healthy person” value with PBMC of a healthy person (fucoxanthin 0.625-10 μM, fucoxanthinol 0.625-2.5 μM, 24 hours, FIG. 4) is on record as “no toxicity”. Moreover, the “action on normal cells” value in the data set on PBMC of a healthy person is “substantially do not act on normal cells”. Moreover, in data set [5] (setting [6]), the concentration causing apoptosis result is “one micromole or less” and the “concentration causing apoptosis compared with β-carotene or astaxanthin” value was “significantly lower than the corresponding concentration of β-carotene or astaxanthin”. Moreover, the “apoptosis-inducing effect compared with fucoxanthin” value in data set [5] (MT-2, 24 hours) is on record as “stronger than that of fucoxanthin”. Besides, the “apoptosis of MT-2 (annexin V positive cells)” value in data set [5] (MT-2, 10, 5, 2.5, 1.25, 0.625 μM, 24 hours, FIG. 8) is given as “induces apoptosis in MT-2”.
With `CC1=C(/C=C/C(C)=C/C=C/C(C)=C/C=C/C=C(C)/C=C/C=C(C)/C=C/C2=C(C)CCCC2(C)C)C(C)(C)CCC1` [β-carotene, reference compound], the “effect on the growth of HTLV-I-infected T-lymph cell lines” value in data set [1] (24 hours) was “only a slight effect”.

For the origin of these results see patent US20100197782A1, “THERAPEUTIC AGENT FOR VIRUS-ASSOCIATED MALIGNANCY” (priority 2006, published 2010).
